The experiment deals with T1, human PTHR1 receptor (Homo sapiens, UniProt Q03431).
T1 construct: purchased Eurofins HTS030M
T1 sequence (Q03431 27-593): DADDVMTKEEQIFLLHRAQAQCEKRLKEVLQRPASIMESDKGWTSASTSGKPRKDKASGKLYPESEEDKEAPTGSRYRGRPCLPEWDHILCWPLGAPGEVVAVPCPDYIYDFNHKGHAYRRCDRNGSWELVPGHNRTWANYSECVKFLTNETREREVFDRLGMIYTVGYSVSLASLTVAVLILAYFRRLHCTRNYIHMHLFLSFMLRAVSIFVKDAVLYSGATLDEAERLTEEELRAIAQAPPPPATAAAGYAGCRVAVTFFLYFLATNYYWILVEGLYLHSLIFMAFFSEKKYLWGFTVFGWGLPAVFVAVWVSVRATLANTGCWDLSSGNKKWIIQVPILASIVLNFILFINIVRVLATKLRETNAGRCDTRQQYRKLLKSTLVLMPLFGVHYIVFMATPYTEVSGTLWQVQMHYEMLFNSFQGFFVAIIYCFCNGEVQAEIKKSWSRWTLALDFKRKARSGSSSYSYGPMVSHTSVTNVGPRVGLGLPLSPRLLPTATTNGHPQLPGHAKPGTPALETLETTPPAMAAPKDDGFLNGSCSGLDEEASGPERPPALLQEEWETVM
The experiment is described as follows: Competitive antagonist binding assay for hPTH-R1 (radioactive competition binding, SPA beads). The conditions noted are these: human PTHR1 membranes, [125I]-[Nle8,18,Tyr34]-PTH(1-34) 0.2 nM, 90 minutes at room temperature; read-out: hPTHR1 Ki. The method, boiled down: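 Human PTHR1 membranes on SPA beads incubated 90 min at room temperature with compound (typically 0-10,000 nM final) and 0.2 nM [125I]-[Nle8,18,Tyr34]-PTH(1-34) in HEPES buffer with MgCl2, CaCl2, BSA, Triton X-100 and protease inhibitors, pH 7.4. Scintillation signal read; Ki values derived.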

Broadly, the Ki is a dissociation constant, usually derived from enzyme kinetics or from competition with a known ligand.

In the case of `CCN1C(=O)N(c2c(F)cc(NCCN(C)CCO)cc2F)c2cc(Cl)ccc2-c2cc(Cl)cnc21` [1-73, 4,13-dichloro-10-[2,6-difluoro-4-({2-[(2-hydroxyethyl)(methyl)amino]ethyl}amino)phenyl]-8-ethyl-6,8,10-triazatricyclo[9.4.0.0^2,7]pentadeca-1(11),2(7),3,5,12,14-hexaen-9-one], the inhibition constant Ki is less than 100 nM.
In the case of `CCN1C(=O)N(c2c(F)cc(NCCNCCOC)cc2F)c2cc(Cl)ccc2-c2cc(Cl)cnc21` [1-74, 4,13-dichloro-10-[2,6-difluoro-4-({2-[(2-methoxyethyl)amino]ethyl}amino)phenyl]-8-ethyl-6,8,10-triazatricyclo[9.4.0.0^2,7]pentadeca-1(11),2(7),3,5,12,14-hexaen-9-one], the Ki was less than 100 nM.
In the case of `CNCCNc1cc(F)c(N2C(=O)N(C)c3ncc(F)cc3-c3c(C)cc(Cl)cc32)c(F)c1` [1-75, 13-chloro-10-(2,6-difluoro-4-{[2-(methylamino)ethyl]amino}phenyl)-4-fluoro-8,15-dimethyl-6,8,10-triazatricyclo[9.4.0.0^2,7]pentadeca-1(11),2(7),3,5,12,14-hexaen-9-one], the Ki was less than 100 nM.
With `Cc1cc(Cl)cc2c1-c1cc(F)cnc1N(C)C(=O)N2c1c(F)cc(NCCNCCO)cc1F` [1-76, 13-chloro-10-[2,6-difluoro-4-({2-[(2-hydroxyethyl)amino]ethyl}amino)phenyl]-4-fluoro-8,15-dimethyl-6,8,10-triazatricyclo[9.4.0.0^2,7]pentadeca-1(11),2(7),3,5,12,14-hexaen-9-one] the figure was less than 100 nM.
To `Cc1cc(Cl)cc2c1-c1cc(F)cnc1N(C)C(=O)N2c1c(F)cc(NCCNCCCC(=O)O)cc1F` [1-77, 4-({2-[(4-{13-chloro-4-fluoro-8,15-dimethyl-9-oxo-6,8,10-triazatricyclo[9.4.0.0^2,7]pentadeca-1(11),2(7),3,5,12,14-hexaen-10-yl}-3,5-difluorophenyl)amino]ethyl}amino)butanoic acid] belongs less than 100 nM; to `CNCCNc1cc(F)c(N2C(=O)N(C(C)C)c3ncc(F)cc3-c3c(C)cc(Cl)cc32)c(F)c1` [1-78, 13-chloro-10-(2,6-difluoro-4-{[2-(methylamino)ethyl]amino}phenyl)-4-fluoro-15-methyl-8-(propan-2-yl)-6,8,10-triazatricyclo[9.4.0.0^2,7]pentadeca-1(11),2(7),3,5,12,14-hexaen-9-one], less than 100 nM; to `Cc1cc(Cl)cc2c1-c1cc(F)cnc1N(C(C)C)C(=O)N2c1c(F)cc(NCCNCCO)cc1F` [1-79, 13-chloro-10-[2,6-difluoro-4-({2-[(2-hydroxyethyl)amino]ethyl}amino)phenyl]-4-fluoro-15-methyl-8-(propan-2-yl)-6,8,10-triazatricyclo[9.4.0.0^2,7]pentadeca-1(11),2(7),3,5,12,14-hexaen-9-one], less than 100 nM.
With `Cc1cc(Cl)cc2c1-c1cc(F)cnc1N(C(C)C)C(=O)N2c1c(F)cc(NCCNCCCC(=O)O)cc1F` [1-80, 4-{[2-({4-[13-chloro-4-fluoro-15-methyl-9-oxo-8-(propan-2-yl)-6,8,10-triazatricyclo[9.4.0.0^2,7]pentadeca-1(11),2(7),3,5,12,14-hexaen-10-yl]-3,5-difluorophenyl}amino)ethyl]amino}butanoic acid], the Ki was less than 100 nM.
To `CCN1C(=O)N(c2c(F)cc(NCCNC)cc2F)c2cc(C#N)ccc2-c2cc(F)cnc21` [1-81, 10-(2,6-difluoro-4-{[2-(methylamino)ethyl]amino}phenyl)-8-ethyl-4-fluoro-9-oxo-6,8,10-triazatricyclo[9.4.0.0^2,7]pentadeca-1(11),2(7),3,5,12,14-hexaene-13-carbonitrile] belongs less than 100 nM; to `CCN1C(=O)N(c2c(F)cc(NCCNCCO)cc2F)c2cc(C#N)ccc2-c2cc(F)cnc21` [1-82, 10-[2,6-difluoro-4-({2-[(2-hydroxyethyl)amino]ethyl}amino)phenyl]-8-ethyl-4-fluoro-9-oxo-6,8,10-triazatricyclo[9.4.0.0^2,7]pentadeca-1(11),2(7),3,5,12,14-hexaene-13-carbonitrile], less than 100 nM.
`CCN1C(=O)N(c2c(F)cc(NCCNCCCC(=O)O)cc2F)c2cc(C#N)ccc2-c2cc(F)cnc21` [1-83, 4-({2-[(4-{13-cyano-8-ethyl-4-fluoro-9-oxo-6,8,10-triazatricyclo[9.4.0.0^2,7]pentadeca-1(11),2(7),3,5,12,14-hexaen-10-yl}-3,5-difluorophenyl)amino]ethyl}amino)butanoic acid]: the Ki was less than 100 nM.
Turning to `CNCCNc1cc(F)c(N2C(=O)N(C(C)C)c3ncc(F)cc3-c3ccc(C#N)cc32)c(F)c1` [1-84, 10-(2,6-difluoro-4-{[2-(methylamino)ethyl]amino}phenyl)-4-fluoro-9-oxo-8-(propan-2-yl)-6,8,10-triazatricyclo[9.4.0.0^2,7]pentadeca-1(11),2(7),3,5,12,14-hexaene-13-carbonitrile], the Ki was less than 100 nM.
In the case of `CC(C)N1C(=O)N(c2c(F)cc(NCCNCCO)cc2F)c2cc(C#N)ccc2-c2cc(F)cnc21` [1-85, 10-[2,6-difluoro-4-({2-[(2-hydroxyethyl)amino]ethyl}amino)phenyl]-4-fluoro-9-oxo-8-(propan-2-yl)-6,8,10-triazatricyclo[9.4.0.0^2,7]pentadeca-1(11),2(7),3,5,12,14-hexaene-13-carbonitrile], the Ki was less than 100 nM.
For `CC(C)N1C(=O)N(c2c(F)cc(NCCNCCCC(=O)O)cc2F)c2cc(C#N)ccc2-c2cc(F)cnc21` [1-86, 4-{[2-({4-[13-cyano-4-fluoro-9-oxo-8-(propan-2-yl)-6,8,10-triazatricyclo[9.4.0.0^2,7]pentadeca-1(11),2(7),3,5,12,14-hexaen-10-yl]-3,5-difluorophenyl}amino)ethyl]amino}butanoic acid], the Ki is less than 100 nM.
For `CCN1C(=O)N(c2c(F)cc(NCCNC)cc2F)c2cc(Cl)cc(OC)c2-c2cc(F)cnc21` [1-87, 13-chloro-10-(2,6-difluoro-4-{[2-(methylamino)ethyl]amino}phenyl)-8-ethyl-4-fluoro-15-methoxy-6,8,10-triazatricyclo[9.4.0.0^2,7]pentadeca-1(11),2(7),3,5,12,14-hexaen-9-one], the inhibitory constant (Ki) is less than 100 nM.
Take `CCN1C(=O)N(c2c(F)cc(NCCNCCO)cc2F)c2cc(Cl)cc(OC)c2-c2cc(F)cnc21` [1-88, 13-chloro-10-[2,6-difluoro-4-({2-[(2-hydroxyethyl)amino]ethyl}amino)phenyl]-8-ethyl-4-fluoro-15-methoxy-6,8,10-triazatricyclo[9.4.0.0^2,7]pentadeca-1(11),2(7),3,5,12,14-hexaen-9-one]: the Ki is less than 100 nM.
For `CCN1C(=O)N(c2c(F)cc(NCCNC)cc2F)c2cc(Cl)ccc2-c2cc(C#N)cnc21` [1-89, 13-chloro-10-(2,6-difluoro-4-{[2-(methylamino)ethyl]amino}phenyl)-8-ethyl-9-oxo-6,8,10-triazatricyclo[9.4.0.0^2,7]pentadeca-1(11),2(7),3,5,12,14-hexaene-4-carbonitrile], the Ki is less than 100 nM.
On to `CCN1C(=O)N(c2c(F)cc(NCCNCCO)cc2F)c2cc(Cl)ccc2-c2cc(C#N)cnc21` [1-90, 13-chloro-10-[2,6-difluoro-4-({2-[(2-hydroxyethyl)amino]ethyl}amino)phenyl]-8-ethyl-9-oxo-6,8,10-triazatricyclo[9.4.0.0^2,7]pentadeca-1(11),2(7),3,5,12,14-hexaene-4-carbonitrile], for which the Ki was less than 100 nM.

These data come from patent publication US20230159532A1, “PARATHYROID HORMONE (PTH) RECEPTOR ANTAGONISTS AND USES THEREOF” (Crinetics Pharmaceuticals, Inc., priority 2021, published 2023).
